Measurements: publication PMC6136712, “Ex vivo drug sensitivity testing as a means for drug repurposing in esophageal adenocarcinoma” (PLoS ONE, 2018)
Counter-ions that a name gives are not always drawn.

System: normal esophageal epithelium cell line EACN42
Experiment: FDA library drug sensitivity testing (CellTiter-Glo, 72 h), normal control cells
Type: cell-based, human
Set-up: key to DSS: modified drug sensitivity score (DSSmod) from dose-response curve fit
Settings: 72 h; for EC50: cell viability (ATP), max test concentration 10μM
Method: The normal esophageal epithelium cell line EACN42 was established in the Capobianco laboratory. The cell lines was derived from human normal epithelium and immortalized using HPV E6-E7.
Drug sensitivity testing (DST) was performed as described previously. […] Individual drugs were dissolved in 100% DMSO and tested in duplicates starting at a maximal test concentration of 10μM then over a 20,000-fold concentration range to generate dose response curves. Wells with assay buffer containing DMSO served as negative controls. 1000 exponentially growing cells were seeded per well in 384-well micro-titer plates and incubated in the presence of compounds in a humidified environment at 37°C and 5% CO2. After 72 hours of treatment, cell viability was assessed by measuring ATP levels via bioluminescence (CellTiter-Glo, Promega) according to manufactures recommendations. Interpretation of curve parameters was performed according to the modified drug sensitivity scoring (DSSmod) function developed by Swords et al. […] Given in this way, the sDSSmod incorporated information on each drug’s potency, efficacy, effect range and therapeutic index, making it possible to prioritize compounds over multiple parameters using a single numerical metric. […] All calculations and scoring routines are implemented in MatLab and additional curve fitting and statistical analyses are performed in GraphPad prism.

[1] = drug sensitivity score, EACN42 normal esophageal cells
[2] = Homo sapiens, EACN42 normal esophageal cells

Row | Structure (SMILES) | DSS [1] | EC50 [2] [nM] | also measured
1 | CC(=O)O[C@]1(C(C)=O)CC[C@H]2[C@@H]3C[C@H](C)C4=CC(=O)CC[C@]4(C)[C@H]3CC[C@@]21C [Medroxyprogesterone acetate] | 0 |  | 
2 | CCCCC1C(=O)N(c2ccccc2)N(c2ccccc2)C1=O [Phenylbutazone] | 0 |  | 
3 | CO[C@H]1O[C@@H]2O[C@@]3(C)CC[C@H]4[C@H](C)CC[C@@H]([C@H]1C)[C@@]24OO3 [Artemether] | 0 |  | 
4 | N=C(N)/N=C(\N)N1CCOCC1 [Moroxydine] | 0 |  | 
5 | CN1C2=CC(=O)/C(=N\NC(N)=O)C=C2CC1S(=O)(=O)[O-].[Na+] (stereo not drawn) [Carbazochrome sodium sulfonate] | 0 |  | 
6 | C[C@]12CCC(=O)C=C1CC[C@@H]1[C@@H]2[C@@H](O)C[C@@]2(C)[C@H]1CC[C@]2(O)C(=O)CO [Hydrocortisone] | 0 |  | 
7 | C=C1C[C@@H]2[C@H](CC[C@]3(C)C(=O)CC[C@@H]23)[C@@]2(C)C=CC(=O)C=C12 [Exemestane] |  |  | DSS: 0
8 | CC(=O)O[C@@]12CO[C@@H]1C[C@H](O)[C@@]1(C)C(=O)[C@H](O)C3=C(C)[C@@H](O)C[C@@](O)([C@@H](OC(=O)c4ccccc4)[C@H]21)C3(C)C [10-DAB] | 0.01 |  | EC50 (EACN42 normal esophageal cells): 5480 nM
9 | CC(C)C(=O)Nc1ccc([N+](=O)[O-])c(C(F)(F)F)c1 [Flutamide] | 0 |  | 
10 | Cc1ccc(NC(=O)c2ccc(CN3CCN(C)CC3)cc2)cc1Nc1nccc(-c2cccnc2)n1 [Imatinib] | 0 |  | 
11 | CS(=O)(=O)OCCCCOS(C)(=O)=O [Busulfan] | 0 |  | 
12 | C=C1/C(=C\C=C2/CCC[C@]3(C)[C@@H]([C@H](C)/C=C/[C@H](C)C(C)C)CC[C@@H]23)C[C@@H](O)C[C@@H]1O [Doxercalciferol] | 0 | 7 | 
13 | C=CC[C@@H]1/C=C(\C)C[C@H](C)C[C@H](OC)[C@H]2O[C@@](O)(C(=O)C(=O)N3CCCC[C@H]3C(=O)O[C@H](/C(C)=C/[C@@H]3CC[C@@H](O)[C@H](OC)C3)[C@H](C)[C@@H](O)CC1=O)[C@H](C)C[C@@H]2OC [Tacrolimus] | 0 |  | 
14 | O=c1[nH]c(=O)n(C2CCCO2)cc1F (stereo not drawn) [Ftorafur] | 0 |  | 
15 | CC[C@@H]1/C=C(\C)C[C@H](C)C[C@H](OC)[C@H]2O[C@@](O)(C(=O)C(=O)N3CCCC[C@H]3C(=O)O[C@H](/C(C)=C/[C@@H]3CC[C@H](Cl)[C@H](OC)C3)[C@H](C)[C@@H](O)CC1=O)[C@H](C)C[C@@H]2OC [Pimecrolimus] | 1.11 | 5300 | 
16 | CNC(=O)c1cc(Oc2ccc(NC(=O)Nc3ccc(Cl)c(C(F)(F)F)c3)cc2)ccn1 [Sorafenib] | 1.79 | 9620 | 
17 | C[C@]12CC[C@@H]3c4ccc(O)cc4C[C@@H](CCCCCCCCC[S+]([O-])CCCC(F)(F)C(F)(F)F)[C@H]3[C@@H]1CC[C@@H]2O (stereo partly drawn) [Fulvestrant] | 0 |  | 
18 | CC(=O)OCC(CCn1cnc2cnc(N)nc21)COC(C)=O [Famciclovir] | 0 | 1120 | 
19 | Cc1ccc(Nc2nccc(N(C)c3ccc4c(C)n(C)nc4c3)n2)cc1S(N)(=O)=O [Pazopanib] | 0 |  | 
20 | CC(=O)Oc1ccccc1C(=O)O [Aspirin] | 0 |  | treatment response in words (EACN42 normal esophageal cells): low or no activity
21 | COc1ccc2c(c1OC)C(=O)O[C@@H]2[C@H]1c2c(cc3c(c2OC)OCO3)CCN1C [Noscapine HCl] | 0 |  | 
22 | O=NN(CCCl)C(=O)NC1CCCCC1 [Lomustine] | 0 |  | 
23 | CC1=C(/C=C/C(C)=C/C=C/C(C)=C\C(=O)O)C(C)(C)CCC1 [Isotretinoin] | 0 |  | 
24 | O=C(O)CCCN1CCC(O[C@@H](c2ccc(Cl)cc2)c2ccccn2)CC1.O=S(=O)(O)c1ccccc1 [Bepotastine Besilate] | 0 |  | 
25 | COc1c2ccoc2cc2oc(=O)ccc12 [Bergapten] | 0 | 50 | 
26 | Nc1ncnc2nc[nH]c12.Nc1ncnc2nc[nH]c12.O=S(=O)(O)O [Adenine sulfate] | 0 |  | EC50 (EACN42 normal esophageal cells): 250 nM

Row | Structure (SMILES) | DSS [1] | EC50 [2] [nM] | also measured
27 | COc1cc2c(cc1O)CC[C@@H]1[C@@H]2CC[C@]2(C)[C@@H](O)CC[C@@H]12 [2-Methoxyestradiol] | 0.26 | > 10000 | 
28 | CCC[C@@H]1C[C@@H](C(=O)N[C@@H]([C@H]2O[C@H](SC)[C@H](O)[C@@H](O)[C@H]2O)[C@@H](C)O)N(C)C1 [Lincomycin hydrochloride] | 0 | 990 | 
29 | CNC(=O)c1ccccc1Sc1ccc2c(/C=C/c3ccccn3)n[nH]c2c1 [Axitinib] | 0 |  | 
30 | CC1=C(CC(=O)O)c2cc(F)ccc2/C1=C\c1ccc([S+](C)[O-])cc1 (stereo not drawn) [Sulindac] | 0 | 50 | 
31 | COc1cc(Nc2c(C#N)cnc3cc(OCCCN4CCN(C)CC4)c(OC)cc23)c(Cl)cc1Cl [Bosutinib] | 0 |  | 
32 | O=C(O)c1nn(Cc2ccc(Cl)cc2Cl)c2ccccc12 [Lonidamine] | 0 |  | 
33 | CC(=O)OCC(=O)[C@@]1(O)[C@H](C)C[C@H]2[C@@H]3CCC4=CC(=O)C=C[C@]4(C)[C@@]3(F)[C@@H](O)C[C@@]21C [Dexamethasone acetate] | 0 |  | 
34 | Cl.N=C(N)NCCC[C@H](N)C(=O)O [L-Arginine HCl] | 0 |  | EC50 (EACN42 normal esophageal cells): 10 nM
35 | Nc1nnc(-c2cccc(Cl)c2Cl)c(N)n1 [Lamotrigine] | 0 |  | 
36 | NC(=O)c1ncn([C@@H]2O[C@H](CO)[C@@H](O)[C@H]2O)c1O [Mizoribine] | 0 | 6 | 
37 | CCN(CC)CCNC(=O)c1c(C)[nH]c(/C=C2\C(=O)Nc3ccc(F)cc32)c1C [Sunitinib Malate] | 0 | 10 | 
38 | Cc1ccc(-c2cc(C(F)(F)F)nn2-c2ccc(S(N)(=O)=O)cc2)cc1 [Celecoxib] | 0 |  | 
39 | CC(C)C[C@H](NC(=O)[C@@H](O)[C@H](N)Cc1ccccc1)C(=O)O [Ubenimex] | 0 |  | 
40 | CCCC(CCC)C(=O)O [Valproic acid sodium salt] | 0 | 2000 | 
41 | CC(O)(CS(=O)(=O)c1ccc(F)cc1)C(=O)Nc1ccc(C#N)c(C(F)(F)F)c1 (stereo not drawn) [Bicalutamide] | 0 |  | 
42 | C[C@]12CC[C@@H]3c4ccc(O)cc4CC[C@H]3[C@@H]1CCC2=O [Estrone] | 0 |  | 
43 | Nc1cccc2c1C(=O)N(C1CCC(=O)NC1=O)C2=O (stereo not drawn) [Pomalidomide] | 0 | 0.158 | 
44 | CCCCCOC(=O)Nc1nc(=O)n([C@@H]2O[C@H](C)[C@@H](O)[C@H]2O)cc1F [Capecitabine] | 0 | 1000 | 
45 | CCN[C@H]1C[C@H](C)S(=O)(=O)c2sc(S(N)(=O)=O)cc21 [Dorzolamide HCL] | 0.01 |  | 
46 | Cl.Nc1ncnc2nc[nH]c12 [Adenine hydrochloride] | 0 |  | EC50 (EACN42 normal esophageal cells): 10 nM
47 | C=CCN1CC[C@]23c4c5ccc(O)c4O[C@H]2C(=O)CC[C@@]3(O)[C@H]1C5 [Naloxone HCl] | 0 |  | 
48 | C=C(c1ccc(C(=O)O)cc1)c1cc2c(cc1C)C(C)(C)CCC2(C)C [Bexarotene] | 0.12 | 4290 | 
49 | C[C@@H](O[C@H]1OCCN(Cc2n[nH]c(=O)[nH]2)[C@H]1c1ccc(F)cc1)c1cc(C(F)(F)F)cc(C(F)(F)F)c1 [Aprepitant] | 0 |  | 
50 | Nc1nc(CC(=O)Nc2ccc(CCNC[C@H](O)c3ccccc3)cc2)cs1 [Mirabegron] | 0 | 20 | 
51 | CCCS(=O)(=O)Nc1ccc(F)c(C(=O)c2c[nH]c3ncc(-c4ccc(Cl)cc4)cc23)c1F [Vemurafenib] | 0 | 50 | 
